Calls of active or inactive are those of the source. No cut-off for these calls is given here.
Experiments:
Candida albicans [1] = assay: Synergistic antifungal activity FLC-resistant Candida albicans 0304103 assessed as hyphal formation at 32 ug/ml incubated for 3 hrs in presence of FLC by inverse fluorescent microscopy; assay type: functional, organism-based; details: dose 32.0 µg/ml
[2] = target: Bromodomain-containing protein 2 (Homo sapiens, UniProt P25440); assay: Inhibition of recombinant BRD2 BD1 (unknown origin) incubated for 120 mins by TR-FRET assay
HL-60 = assay: Antiproliferative activity against human HL-60 cells assessed as cell growth inhibition incubated for 24 hrs by CCK-8 assay; assay type: functional, cell-based; details: HL-60, 24 h
Candida albicans [3] = assay: Synergistic antifungal activity against azole-resistant Candida albicans 0304103 assessed as fungal growth inhibition at 32 ug/ml measured upto 24 hrs in presence of 1 to 4 ug/ml FLC by absorbance based assay; assay type: functional, organism-based; details: dose 32.0 µg/ml
HEL = assay: Antiproliferative activity against human HEL cells assessed as cell growth inhibition incubated for 24 hrs by CCK-8 assay; assay type: functional, cell-based
Histone deacetylase 8 = target: T1, Histone deacetylase 8 (Homo sapiens, UniProt Q9BY41); assay: Inhibition of C-terminal His-tagged full-length recombinant human HDAC8 expressed in baculovirus infected Sf9 insect cells using Ac-Leu-Gly-Lys(Tfa)-AMC as substrate incubated for 30 mins by fluorescence based assay
T1 sequence (Q9BY41 whole entry): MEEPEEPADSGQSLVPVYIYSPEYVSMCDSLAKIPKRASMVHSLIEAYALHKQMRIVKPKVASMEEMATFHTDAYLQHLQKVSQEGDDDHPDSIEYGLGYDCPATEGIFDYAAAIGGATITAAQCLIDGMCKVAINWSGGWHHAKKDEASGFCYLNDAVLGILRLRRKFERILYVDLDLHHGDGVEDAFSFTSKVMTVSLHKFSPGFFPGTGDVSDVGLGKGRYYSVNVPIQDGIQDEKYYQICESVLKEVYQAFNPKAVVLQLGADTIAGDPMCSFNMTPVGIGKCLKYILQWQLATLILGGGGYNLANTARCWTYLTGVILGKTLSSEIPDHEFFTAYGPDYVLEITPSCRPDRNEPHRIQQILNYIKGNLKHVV

Candida albicans [4] = assay: microbe, parasite or virus in culture; assay type: functional; details: 0304103, time 48 hrs
Description: Synergistic antifungal activity against azole-resistant Candida albicans 0304103 assessed as fungal growth inhibition measured after 48 hrs by CLSI based micro-dilution broth method

MDA-MB-231 = assay: Upregulation of acetyl-H3 level in human MDA-MB-231 cells incubated for 24 hrs by Western blot analysis; assay type: functional, cell-based; details: dose 0.2-5 µM
Candida albicans [5] = assay: Antifungal activity FLC-resistant Candida albicans 0304103 assessed as hyphal formation at 32 ug/ml incubated for 3 hrs by inverse fluorescent microscopy; assay type: functional, organism-based; details: dose 32.0 µg/ml

Sequence of Bromodomain-containing protein 2 (P25440 whole entry): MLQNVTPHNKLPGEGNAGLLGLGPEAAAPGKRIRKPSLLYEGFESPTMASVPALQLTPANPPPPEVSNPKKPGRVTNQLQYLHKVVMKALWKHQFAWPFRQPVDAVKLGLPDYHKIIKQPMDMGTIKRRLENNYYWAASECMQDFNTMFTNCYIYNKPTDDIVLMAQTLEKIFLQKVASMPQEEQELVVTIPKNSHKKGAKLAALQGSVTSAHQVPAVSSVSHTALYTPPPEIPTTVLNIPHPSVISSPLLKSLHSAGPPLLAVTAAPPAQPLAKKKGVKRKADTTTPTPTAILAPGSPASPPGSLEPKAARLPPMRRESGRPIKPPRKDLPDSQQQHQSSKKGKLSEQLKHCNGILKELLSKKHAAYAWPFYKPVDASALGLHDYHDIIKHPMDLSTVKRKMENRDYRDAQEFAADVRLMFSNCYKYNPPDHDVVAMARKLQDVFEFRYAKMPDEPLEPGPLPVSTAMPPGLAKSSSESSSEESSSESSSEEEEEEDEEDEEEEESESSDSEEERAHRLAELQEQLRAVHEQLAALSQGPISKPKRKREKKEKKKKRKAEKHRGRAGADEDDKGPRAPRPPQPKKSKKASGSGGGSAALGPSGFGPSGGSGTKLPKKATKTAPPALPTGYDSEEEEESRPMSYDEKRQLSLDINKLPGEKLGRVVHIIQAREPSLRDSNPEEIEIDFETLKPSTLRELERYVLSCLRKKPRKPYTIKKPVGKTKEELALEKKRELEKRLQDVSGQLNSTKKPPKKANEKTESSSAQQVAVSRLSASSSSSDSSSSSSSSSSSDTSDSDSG

Row | SMILES | Activity (Candida albicans [1]) | IC50 [2] | IC50 (HL-60) | Activity (Candida albicans [3]) | IC50 (HEL) | IC50 (Histone deacetylase 8) | MIC80 (Candida albicans [4]) | Activity (MDA-MB-231) | Activity (Candida albicans [5])
1 | COc1cc2c(cc1-c1c(C)noc1C)[nH]c1ncnc(NCCCCCCC(=O)NO)c12 | inactive | 174 nM | 1200 nM | Active | 3900 nM | 784 nM | > 64 µg/mL | Dose-Dependent Effect | Active
2 | COc1cc2c(cc1-c1c(C)noc1C)[nH]c1nc(C)nc(NCCCCCCC(=O)NO)c12 | inactive | 2010 nM | 1900 nM | Active | 900 nM | 782 nM | > 64 µg/mL | Dose-Dependent Effect | Active

Source: ChEMBL document CHEMBL5316308, “BET-HDAC Dual Inhibitors for Combinational Treatment of Breast Cancer and Concurrent Candidiasis” (J Med Chem, 2023)
